The subject of one data set is E. faecalis ATCC 29212. As to the kind of experiment: Antibacterial activity, broth dilution MIC. Type of data set: cell-based. The settings on record: Enterococcus faecalis. On the procedure: (§1) The antibacterial activities of compounds 1–13 were assessed using twofold serial dilutions of antibacterial agents in MH broth, according to previously reported standard methods provided by Clinical and Laboratory Standards Institute (CLSI)[30]. These compounds were tested for their antibacterial activities against Bacillus subtilis BS01, Staphyloccocus aureus ATCC 29213, Staphyloccocus aureus 745524, Bacillus thuringiensis BT01, and Enterococcus faecalis ATCC 29212 using a broth dilution method.
A general note: Broth dilution looks for growth in wells or tubes with falling amounts of substance.

The subject of another data set is B. subtilis BS01. The data set is described as follows: Antibacterial activity, broth dilution MIC. Type of data set: cell-based. As to conditions: Bacillus subtilis. The protocol: as §1
For data set [1], the system named is Staphylococcus aureus ATCC 29213. As to the kind of experiment: Antibacterial activity, broth dilution MIC. Type of data set: cell-based. The protocol:
as §1

Data set [2] relates to Staphylococcus aureus 745524. The data set is described as follows: Antibacterial activity, broth dilution MIC. It counts as cell-based. On the procedure:
as §1

The next data set deals with B. thuringiensis BT01. The data set is described as follows: Antibacterial activity, broth dilution MIC. Type of data set: cell-based. As to conditions: Bacillus thuringiensis. The protocol: as §1
The test system of data set [3] is HepG2 human hepatocellular carcinoma cell line. The data set is described as follows: Cytotoxic activity, MTT method. Type of data set: cell-based. As to conditions: HepG2, read-out: Cytotoxic activities IC50, HepG2. The source says:
(§2) All data were obtained in triplicate and are presented as means.
(In general: Tetrazolium assays rely on reduction of a dye to a coloured formazan, in cell work by metabolically active cells.)

Data set [4] has as its system A549 human lung cancer cell line. The data set is described as follows: Cytotoxic activity, MTT method. It counts as cell-based. As to conditions: A549, read-out: Cytotoxic activities IC50, A549.
Source text: as §2

In data set [5] the test system is MDA-MB-468 human triple negative breast adenocarcinoma cell line. As to the kind of experiment: Cytotoxic activity, MTT method. The settings on record: MDA-MB-468, read-out: Cytotoxic activities IC50, MDA-MB-468. It counts as cell-based.
Source text: as §2

The subject of data set [6] is HeLa human cervical carcinoma cell line. The data set is described as follows: Cytotoxic activity, MTT method. The settings on record: read-out: Cytotoxic activities IC50, HeLa. Type of data set: cell-based.
Source text: as §2

Data set [7] deals with MDA-MB-231 human triple negative breast adenocarcinoma cell line. The data set is described as follows: Cytotoxic activity, MTT method. Type of data set: cell-based. The settings on record: MDA-MB-231, read-out: Cytotoxic activities IC50, MDA-MB-231.
Source text: as §2

The test system of data set [8] is MCF-7 human breast adenocarcinoma cell line. As to the kind of experiment: Cytotoxic activity, MTT method. Type of data set: cell-based. The settings on record: MCF7, read-out: Cytotoxic activities IC50, MCF-7.
Source text: as §2

Data set [9] can be described thus: Cytotoxic activity, MTT method. It counts as cell-based. The settings on record: human.
Source text: as §2

Data set [10] relates to RKO human colorectal carcinoma cell line. The data set is described as follows: Cytotoxic activity, MTT method. Type of data set: cell-based. As to conditions: read-out: Cytotoxic activities IC50, RKO.
Source text: as §2

The test system of another data set is CytA. The data set is described as follows: Enzyme kinetics of CytA (formation of deglycosylation products, anaerobic). Type of data set: biochemical, Streptomyces sp. SCSIO 1666. As to conditions: substrate of CytA; 0.5 μM CytA, 20 μM NADH, anaerobic. On the procedure: Enzymatic reactions were carried out under anaerobic conditions in an anaerobic workstation (Don Whitley Scientific A45) containing a gas phase of N2/H2/CO2 (80:10: 10%, by vol.). ^1H, ^13C, and 2D (COSY, HMQC, HMBC and NOESY) NMR spectra were recorded at 25 °C with an Avance 700 MHz spectrometer instruments (Bruker). High-resolution mass spectra were obtained with a Maxis quadrupole-time-of-flight mass spectrometer (Bruker).
To validate the in vitro biochemical activities of CytA, we overexpressed and purified this enzyme as a soluble N-terminally His6-tagged protein from E. coli (Fig. 2a). Tris-Cl buffer was made O2 free by boiling, followed by cooling under N2 flow; NADH stock solution (dissolved in Tris-Cl), substrate stock solution (dissolved in DMSO), and enzyme solution (dissolved in Tris-Cl supplemented with 10% glycerin) were subjected to O2 eliminating process in the anaerobic workstations for at least two cycles (40 min for one cycle). CytA enzymatic activity was tested in 50 μL volume containing 50 mM Tris-Cl (pH 8.0), 25 μM substrate, 0.5 μM CytA, and 20 μM NADH, at 37 °C for 30 min. The reaction was quenched with the addition to 2 volumes MeOH. After centrifugation to remove protein, supernatants were analyzed with Agilent HPLC equipment using a Phenomenex Prodigy ODS column S5 (150 × 4.60 mm, 5 μ) and UV detection at 254 and 500 nm. Samples were eluted with a gradient elution of phase A containing 0.1% TFA in ddH2O and phase B containing 100% acetonitrile, at a flow rate of 1 mL/min.
Kinetic analyses of CytA with putative substrates 6–10, daunorubicin, doxorubicin, idarubicin, epirubicin and pirarubicin, involved a reaction volume of 20 μL consisting of 50 mM Tris-Cl (pH 8.0), 0.5 μM CytA, 20 μM NADH, […]
All assays were performed in triplicate and Km and Vmax values were calculated on the basis of curve fitting to the Michaelis-Menten equation: v = Vmax *[S]/(Km + [S]) (Supplementary Fig. 7).
For kinetics of CytA, Origin 9.0 (OriginLab Co.) was used to analyze on the basis of curve fitting to the Michaelis-Menten equation. Experiments were performed in triplicate independently. For antibacterial activity, experiments were performed in triplicate using 96-well plates.

The test system of data set [11] is five gram-positive bacteria. The data set is described as follows: Antibacterial activities, set of five gram-positive bacteria. Type of data set: cell-based. The settings on record: set of five gram-positive bacteria (Table 2). The protocol: as §1
The mark [12] stands for this setting: ATCC29212, read-out: MIC values, EF.
Where [13] appears, read: Staphylococcus aureus, ATCC29213, read-out: MIC values, SA1.
The mark [14] stands for this setting: Staphylococcus aureus, 745524, read-out: MIC values, SA2.
The mark [15] stands for this setting: Huvec-12 normal cell line, read-out: Cytotoxic activities IC50, Huvec-12.
[16] abbreviates: L02 normal cell line, read-out: Cytotoxic activities IC50, L02.
Where [17] appears, read: ATCC29212, E. faecalis ATCC 29212, triplicate, read-out: MIC values, EF.
Where [18] appears, read: B. subtilis BS01, triplicate, read-out: MIC values, BS.
Where [19] appears, read: ATCC29213, Staphylococcus aureus ATCC 29213, triplicate, read-out: MIC values, SA1.
[20] abbreviates: Staphylococcus aureus 745524, triplicate, read-out: MIC values, SA2.
Setting [21] is: B. thuringiensis BT01, triplicate, read-out: MIC values, BT.

Molecules are shown by their SMILES. ≈ marks a conversion by molar mass, not a printed value. Where two headings read alike, the source gives them in different places.

As for `CC[C@@]1(O)CCc2c(O)c3c(c(O)c2[C@H]1O[C@H]1C[C@H](N(C)C)[C@H](O)[C@H](C)O1)C(=O)c1cccc(O)c1C3=O` [Compound 5, iremycin], the MIC – broadly, the lowest concentration found to suppress growth – with E. faecalis ATCC 29212 (setting [12]) was determined as 8 mg/L (≈ 15.2 µM); in the data set with B. subtilis BS01 (BS01, read-out: MIC values, BS) it was 8 mg/L (≈ 15.2 µM); in data set [1] (setting [13]) it was 8 mg/L (≈ 15.2 µM); in data set [2] (setting [14]), 8 mg/L (≈ 15.2 µM); in the data set with B. thuringiensis BT01 (BT01, read-out: MIC values, BT), 16 mg/L (≈ 30.3 µM). The IC50 – broadly, the midpoint of a concentration-inhibition curve – worked out at 10.2 µM in data set [3]; 11.8 µM in data set [4]; 29.3 µM in data set [5]; 9.99 µM in data set [6]; 20.3 µM in [7]; 10.7 µM in data set [8]. In addition, the IC50 in [9] (setting [15]) worked out at 13.5 µM; in data set [9] (setting [16]), 6.93 µM; in [10], 15.2 µM.

Regarding `CC[C@]1(O)Cc2c(O)c3c(c(O)c2[C@@H](O[C@H]2C[C@H](N(C)C)[C@H](O)[C@H](C)O2)C1)C(=O)c1c(O)cccc1C3=O` [Compound 8, 10-decarbomethoxy-ε-rhodomycin], the MIC with E. faecalis ATCC 29212 (setting [17]) is 4 mg/L (≈ 7.58 µM); with B. subtilis BS01 (setting [18]), 8 mg/L (≈ 15.2 µM); in [1] (setting [19]) it was 4 mg/L (≈ 7.58 µM); in data set [2] (setting [20]), 8 mg/L (≈ 15.2 µM); in the data set on B. thuringiensis BT01 (setting [21]) it was 8 mg/L (≈ 15.2 µM). Moreover, the Km – broadly, the substrate concentration at which the rate is half of its maximum – with CytA came to 12.7 µM. In the data set on CytA, the kcat (in general, the maximal rate divided by the concentration of active sites) was 0.00283 s⁻¹. In addition, the IC50 in data set [3] is 1.99 µM; in [4], 6.24 µM; in [5] it was 16.8 µM; in data set [6], 1.31 µM; in data set [7] it was 7.65 µM; in data set [8], 21.1 µM. The IC50 came to 6.92 µM in [9] (setting [15]), 19.8 µM in [9] (setting [16]) and 3.28 µM in data set [10].

Take `CC[C@@]1(O)C[C@H](O[C@H]2C[C@H](N(C)C)[C@H](O)[C@H](C)O2)c2c(O)c3c(c(O)c2[C@H]1C(=O)OC)C(=O)c1cccc(O)c1C3=O` [Compound 9, ε-rhodomycin]: the MIC came to 8 mg/L (≈ 13.7 µM) in the data set with E. faecalis ATCC 29212 (setting [12]); 8 mg/L (≈ 13.7 µM) in the data set with B. subtilis BS01 (BS01, read-out: MIC values, BS); 4 mg/L (≈ 6.83 µM) in data set [1] (setting [13]); 4 mg/L (≈ 6.83 µM) in data set [2] (setting [14]); 4 mg/L (≈ 6.83 µM) in the data set with B. thuringiensis BT01 (BT01, read-out: MIC values, BT). Further, the Km in the data set with CytA came to 8.5 µM. The kcat in the data set on CytA was determined as 0.0055 s⁻¹. In addition, the IC50 in data set [3] came to 1.91 µM; in data set [4], 1.92 µM; in data set [5], 13.5 µM; in [6], 1.01 µM; in [7] it was 6.63 µM; in data set [8] it was 11.7 µM. The IC50 in data set [9] (setting [15]) worked out at 7.21 µM; in data set [9] (setting [16]), 14 µM; in data set [10], 2.88 µM.

Consider `CC[C@@]1(O)CCc2c(O)c3c(c(O)c2[C@H]1C(=O)OC)C(=O)c1cccc(O)c1C3=O` [Compound 11], for which the MIC (with E. faecalis ATCC 29212 (setting [17]); in the data set with B. subtilis BS01 (setting [18]); in [1] (setting [19]); in data set [2] (setting [20]); in the data set with B. thuringiensis BT01 (setting [21]); in [11]) was over 32 mg/L in each case.
